Measured values published in patent US4085224A, “Method of increasing feed utilization” (Eli Lilly and Company, priority 1976, dated 1978).

Legend:
vaccinia virus = type: cell-based; details: in vitro plaque suppression
Eimeria tenella = test: anticoccidial activity in chicks (Table VIII); type: in vivo; details: for Percent Weight Gain: normal controls 100
type III poliovirus = type: cell-based; details: in vitro plaque suppression
[1] = first group, 0.01 percent in feed
[2] = first group, 0.02 percent in feed
[3] = first group, 0.04 percent in feed
[4] = second group, 0.0025 percent in feed
[5] = second group, 0.005 percent in feed
[6] = second group, 0.01 percent in feed
[7] = second group, 0.02 percent in feed

Q: With CCC(C(=O)O)C1OC(C(C)C(O)C(C)C(=O)C(CC)C2OC3(C=CC(O)C4(CCC(C)(C5CCC(O)(CC)C(C)O5)O4)O3)C(C)CC2C)C(C)CC1C (stereo not drawn) [A-28086 factor A] as the molecule, how does the antiviral activity (vaccinia virus) read?
A: active

Q: And the “Percent Reduction in Lesion Score” value (Eimeria tenella; [1])?
A: 95%

Q: What about the “Percent Mortality” value (Eimeria tenella; first group, 0.01 percent in feed, 10 chickens) of the same molecule?
A: 0%

Q: And the “Average Lesion Score” value (Eimeria tenella; first group, 0.01 percent in feed, infected controls 3.65)?
A: 0.2

Q: And the “Percent Weight Gain” value (Eimeria tenella; [1])?
A: 94%

Q: What about the “Percent Reduction in Lesion Score” value (Eimeria tenella; [2]) of the same molecule?
A: 95%

Q: And the “Percent Mortality” value (Eimeria tenella; first group, 0.02 percent in feed, 10 chickens)?
A: 0%

Q: And the “Average Lesion Score” value (Eimeria tenella; first group, 0.02 percent in feed, infected controls 3.65)?
A: 0.2

Q: And the “Percent Weight Gain” value (Eimeria tenella; [2])?
A: 82%

Q: What about the “Percent Reduction in Lesion Score” value (Eimeria tenella; [3]) of the same molecule?
A: 100%

Q: What about the “Percent Mortality” value (Eimeria tenella; first group, 0.04 percent in feed, 10 chickens) of the same molecule?
A: 0%

Q: What about the “Average Lesion Score” value (Eimeria tenella; first group, 0.04 percent in feed, infected controls 3.65) of the same molecule?
A: 0

Q: And the “Percent Weight Gain” value (Eimeria tenella; [3])?
A: 50%

Q: And the “Percent Reduction in Lesion Score” value (Eimeria tenella; [4])?
A: 0%

Q: And the “Percent Mortality” value (Eimeria tenella; second group, 0.0025 percent in feed, 20 chickens)?
A: 10%

Q: What about the “Average Lesion Score” value (Eimeria tenella; second group, 0.0025 percent in feed, infected controls 3.85) of the same molecule?
A: 3.85

Q: What about the “Percent Weight Gain” value (Eimeria tenella; [4]) of the same molecule?
A: 87%

Q: What about the “Percent Reduction in Lesion Score” value (Eimeria tenella; [5]) of the same molecule?
A: 27%

Q: And the “Percent Mortality” value (Eimeria tenella; second group, 0.005 percent in feed, 20 chickens)?
A: 0%

Q: What about the “Average Lesion Score” value (Eimeria tenella; second group, 0.005 percent in feed, infected controls 3.85) of the same molecule?
A: 2.8

Q: What about the “Percent Weight Gain” value (Eimeria tenella; [5]) of the same molecule?
A: 91%

Q: And the “Percent Reduction in Lesion Score” value (Eimeria tenella; [6])?
A: 100%

Q: And the “Percent Mortality” value (Eimeria tenella; second group, 0.01 percent in feed, 20 chickens)?
A: 0%

Q: What about the “Average Lesion Score” value (Eimeria tenella; second group, 0.01 percent in feed, infected controls 3.85) of the same molecule?
A: 0

Q: What about the “Percent Weight Gain” value (Eimeria tenella; [6]) of the same molecule?
A: 96%

Q: And the “Percent Reduction in Lesion Score” value (Eimeria tenella; [7])?
A: 100%

Q: And the “Percent Mortality” value (Eimeria tenella; second group, 0.02 percent in feed, 20 chickens)?
A: 0%

Q: And the “Average Lesion Score” value (Eimeria tenella; second group, 0.02 percent in feed, infected controls 3.85)?
A: 0

Q: And the “Percent Weight Gain” value (Eimeria tenella; [7])?
A: 84%

Q: And the antiviral activity (type III poliovirus)?
A: active
